According to patent US12466856B2, “Echinocandin analogues and preparation method therefor” (SHANGHAI SENHUI MEDICINE CO., LTD., priority 2019, dated 2025):
Converted amounts (≈) assume the structure as drawn. Read-outs that look alike come from different tables or passages of the source. Starred links: 1 amine or outer side, 2 acyl side, 3 side chain; linkers in the order of their positions; H or OH if unused. Positions of bridges follow the written chain, without caps; N, C: chain ends. Non-standard residues stand in square brackets, D forms with d. Residues, ends and D or L forms follow the SMILES beside them. *: point of attachment. pTerphenylCO(4''-OnC5H11) = CCCCCOc1ccc(-c2ccc(-c3ccc(C(=O)*)cc3)cc2)cc1; Orn(4R-OH,5R-OH) = O=C([C@H](C[C@@H](O)[C@@H](O)N[*:3])N[*:1])[*:2]; hTyr(3S-OH,4S-OH) = N[C@H](C(=O)O)[C@H](O)[C@@H](O)c1ccc(O)cc1; Pro(3S-OH,4S-Me) = C[C@H]1CN[C@H](C(=O)O)[C@H]1O; Hyp = O=C(O)[C@@H]1C[C@@H](O)CN1

Experiments:
[1] = test system: Aspergillus flavus ATCC 28539; experiment: MEC assay (CLSI M38-A2), Aspergillus flavus ATCC 28539; type: cell-based; conditions: first batch; 28° C., 21-26 h
Procedure: The MIC assay was performed according to the guidelines of the Clinical and Laboratory Standards Institute (CLSI M27-A3) and the MEC assay according to the guidelines of the Clinical and Laboratory Standards Institute (CLSI M38-A2).
Colonies on the plate were covered with about 1 mL of 0.85% normal saline or sterile water (polysorbate 20 was added at a final concentration of 0.1%-0.01%). […] The homogeneous upper layer of the suspension was transferred to a new sterile tube, which was then sealed and vortexed for 15 s (be careful as the suspension may produce an aerosol when the cover is removed). The concentration of the suspension was adjusted until an OD value of 0.09-0.13 was achieved using a spectrophotometer at 530 nm. […] 100 μL of sample was added to each well of the 96-well plate within 2 h after dilution (the final spore concentration in the susceptibility testing plate was at 0.4×10^4 to 5×10^4 CFU/mL).
Aspergillus: For echinocandin drugs, comparisons were made to the growth control under a plate reader, and the minimum drug concentration that could cause the hyphae to form small, round, compact hyphal particles was defined as MEC. For accurate determination of MEC values, the plate must not be vortexed before reading.

[2] = test system: Candida glabrata ATCC 15126; experiment: MIC assay (CLSI M27-A3), Candida glabrata ATCC 15126; type: cell-based; conditions: for MIC: Nakaseomyces glabratus, read-out: MIC, Candida glabrata ATCC 15126
Procedure: (§1) After a test compound was serially diluted, an MIC (minimum inhibitory concentration) assay was performed on the standard Candida strain and an MEC (minimum effective concentration) assay on the standard Aspergillus strain. The MIC assay was performed according to the guidelines of the Clinical and Laboratory Standards Institute (CLSI M27-A3) and the MEC assay according to the guidelines of the Clinical and Laboratory Standards Institute (CLSI M38-A2).
(§2) The frozen strain was passaged at least twice, and a single colony was picked and resuspended in normal saline or sterile water in a tube. The suspension was vortexed and adjusted to 0.5 McF (1×10^6 to 5×10^6 CFU/mL) using a spectrophotometer at wavelength 530 nm. The suspension was 50-fold diluted with normal saline and then 20-fold diluted with 1×RPMI 1640 broth (1×10^3 to 5×10^3 CFU/mL). 10 μL of the suspension was applied to an SDA plate for colony counting, with a range from about 10 to 50 single colonies.
(§3) At this time, the bacterium concentration in each well should be 0.5×10^3 to 2.5×10^3 CFU/mL.
(§4) For echinocandin drugs, Aspergillus was incubated at 28° C. for 21-26 h, and then the MEC results were read.
(§5) Yeast-type fungi: A disposable sealing film was applied to the 96-well plate, and the mixture was well mixed by shaking. Observation was performed through a plate reader with the naked eye. Comparisons were made to the growth control, and the minimum compound concentration corresponding to ≥50% growth inhibition was defined as MIC. Pictures were taken and saved using an automatic plate reader.

[3] = test system: Candida tropicalis ATCC 750; experiment: MIC assay (CLSI M27-A3), Candida tropicalis ATCC 750; type: cell-based; conditions: for MIC: Candida tropicalis, read-out: MIC, Candida tropicalis ATCC 750
Procedure: as §1, §2, §3, §4, §5

[4] = test system: Candida krusei ATCC 6258; experiment: MIC assay (CLSI M27-A3), Candida krusei ATCC 6258; type: cell-based; conditions: for MIC: Pichia kudriavzevii, ATCC6258, 24 h, read-out: MIC, Candida krusei ATCC 6258
Procedure: as §1, §2, §3, §4, §5

[5] = test system: Candida albicans ATCC 90029; experiment: MIC assay (CLSI M27-A3), Candida albicans ATCC 90029; type: cell-based; conditions: for MIC: Candida albicans, read-out: MIC, Candida albicans ATCC 90029
Procedure: as §1, §2, §3, §4, §5

[6] = test system: Candida parapsilosis ATCC 22019; experiment: MIC assay (CLSI M27-A3), Candida parapsilosis ATCC 22019; type: cell-based; conditions: for MIC: Lodderomyces parapsilosis, ATCC22019, 24 h, read-out: MIC, Candida parapsilosis ATCC 22019
Procedure: as §1, §2, §3, §4, §5

[7] = test system: Meyerozyma guilliermondii ATCC 6260; experiment: MIC assay (CLSI M27-A3), Meyerozyma guilliermondii ATCC 6260; type: cell-based; conditions: for MIC: Meyerozyma guilliermondii, read-out: MIC, Meyerozyma guilliermondii ATCC 6260
Procedure: as §1, §2, §3, §4, §5

[8] = test system: Candida glabrata ATCC 36583; experiment: MIC assay (CLSI M27-A3), Candida glabrata ATCC 36583; type: cell-based; conditions: Nakaseomyces glabratus, ATCC36583; second batch; read-out: MIC, Candida glabrata ATCC 36583
Procedure: as §1, §2, §3, §4, §5

[9] = Plasma histamine assay after single intravenous injection in SD rats; type: in vivo; conditions: same dose (10 mg/kg), single intravenous injection, versus rezafungin acetate
Procedure: (§6) 12 SD rats were divided into 2 groups of 6 (half are male and half female). […] The body weights were measured once before administration. Administration was performed by single intravenous injection for 20 min per animal. PK measurement was performed once before administration and 5 min, 30 min, 1 h, 4 h, 8 h, 24 h, 48 h, 72 h and 96 h after administration. A histamine assay was performed once before administration and 30 min, 4 h, 8 h and 24 h after administration.

[10] = test system: Candida tropicalis (amphotericin-resistant strain) ATCC 200956; experiment: microbe, parasite or virus in culture; type: cell-based; conditions: Candida tropicalis, ATCC200956, read-out: MIC, Candida tropicalis (amphotericin-resistant strain) ATCC 200956
Procedure: as §1, §2, §3, §4, §5

[11] = test system: Candida albicans (azole drug-resistant strain) R358; experiment: MIC assay (CLSI M27-A3), Candida albicans azole drug-resistant strain R358; type: cell-based; conditions: Candida albicans; second batch; read-out: MIC, Candida albicans (azole drug-resistant strain) R358
Procedure: as §1, §2, §3, §4, §5

[12] = test system: Candida albicans (azole drug-resistant strain) R357; experiment: MIC assay (CLSI M27-A3), Candida albicans azole drug-resistant strain R357; type: cell-based; conditions: Candida albicans; second batch; read-out: MIC, Candida albicans (azole drug-resistant strain) R357
Procedure: as §1, §2, §3, §4, §5

[13] = test system: Candida albicans ATCC 90028; experiment: MIC assay (CLSI M27-A3), Candida albicans ATCC 90028; type: cell-based; conditions: Candida albicans, ATCC90028, second batch
Procedure: as §1, §2
At this time, the bacterium concentration in each well should be 0.5×10^3 to 2.5×10^3 CFU/mL. […]
as §5

[14] = test system: Candida albicans ATCC 44858; experiment: MIC assay (CLSI M27-A3), Candida albicans ATCC 44858; type: cell-based; conditions: Candida albicans, ATCC44858; second batch; read-out: MIC, Candida albicans ATCC 44858
Procedure: as §1, §2, §3, §4, §5

[15] = Pharmacokinetic study after single intravenous injection in SD rats; type: in vivo; conditions: 10 mg/kg single intravenous injection
Procedure: as §6

[16] = first batch, 24 h, 35° C., ≥50% growth inhibition
[17] = first batch, 24 h, 35° C., quality control strain
[18] = ATCC750, first batch, 24 h, 35° C.
[19] = ATCC90029, first batch, 24 h, 35° C., ≥50% growth inhibition
[20] = ATCC6260, first batch, 24 h, 35° C.

Caspofungin acetate [reference compound]
MEC, Aspergillus flavus ATCC 28539 [1]: 0.031 µg/mL
MIC, Candida glabrata ATCC 15126 [2, 16]: 0.25 µg/mL
MIC, Candida tropicalis ATCC 750 ([3]; first batch, 24 h, 35° C.): 0.016 µg/mL
MIC, Candida krusei ATCC 6258 [4, 17]: 1 µg/mL
MIC, Candida albicans ATCC 90029 [5, 16]: 0.063 µg/mL
MIC, Candida parapsilosis ATCC 22019 [6, 17]: 1 µg/mL
MIC, Meyerozyma guilliermondii ATCC 6260 ([7]; first batch, 24 h, 35° C.): 1 µg/mL

CCCCCOc1ccc(-c2ccc(-c3ccc(C(=O)N[C@H]4C[C@@H](O)[C@@H](OCC[N+]5(C)CCCC5)NC(=O)[C@@H]5[C@@H](O)[C@@H](C)CN5C(=O)[C@H]([C@@H](C)O)NC(=O)[C@H]([C@H](O)[C@@H](O)c5ccc(O)cc5)NC(=O)[C@@H]5C[C@@H](O)CN5C(=O)[C@H]([C@@H](C)O)NC4=O)cc3)cc2)cc1 [Example 5]
MEC, Aspergillus flavus ATCC 28539 [1]: 0.031 µg/mL
MIC ([2]; ATCC15126, first batch, 24 h, 35° C., ≥50% growth inhibition): 0.125 µg/mL
MIC [3, 18]: 0.016 µg/mL
MIC [4]: 0.125 µg/mL
MIC [5, 19]: 0.125 µg/mL
MIC [6]: 2 µg/mL
MIC [7, 20]: 4 µg/mL

CCCCCOc1ccc(-c2ccc(-c3ccc(C(=O)N[C@H]4C[C@@H](O)[C@@H](OC[C@H]5CCC[N+]5(C)C)NC(=O)[C@@H]5[C@@H](O)[C@@H](C)CN5C(=O)[C@H]([C@@H](C)O)NC(=O)[C@H]([C@H](O)[C@@H](O)c5ccc(O)cc5)NC(=O)[C@@H]5C[C@@H](O)CN5C(=O)[C@H]([C@@H](C)O)NC4=O)cc3)cc2)cc1 [Example 13]
MIC [8]: 0.5 µg/mL
ability to induce increases in the histamine level in rats [9]: significantly lower than that of rezafungin acetate
MIC [3, 18]: 0.016 µg/mL
MIC [10]: 0.25 µg/mL
MIC [4]: 0.047 µg/mL
MIC [11]: 0.25 µg/mL
MIC [5, 19]: 0.031 µg/mL
MIC [12]: 0.5 µg/mL
MIC [6]: 1 µg/mL
MIC [7, 20]: 1 µg/mL
MIC ([13]; 24 h, 35° C., read-out: MIC, Candida albicans ATCC 90028): 0.25 µg/mL
MIC ([13]; + 50% human serum, read-out: MIC, Candida albicans + 50% human serum ATCC 90028): 0.25 µg/mL
MIC [14]: 0.25 µg/mL
MRTIV ([15]; female SD rats): 34.6 h
MRTIV ([15]; male SD rats): 37.1 h

CCCCCOc1ccc(-c2ccc(-c3ccc(C(=O)N[C@H]4C[C@@H](O)[C@@H](O)NC(=O)[C@@H]5[C@@H](O)[C@@H](C)CN5C(=O)[C@H]([C@@H](C)O)NC(=O)[C@H]([C@H](O)[C@@H](O)c5ccc(O)cc5)NC(=O)[C@@H]5C[C@@H](O)CN5C(=O)[C@H]([C@@H](C)O)NC4=O)cc3)cc2)cc1 [Anidulafungin, reference compound] ({pTerphenylCO(4''-OnC5H11)}-[Orn(4R-OH,5R-OH)]T[Hyp][hTyr(3S-OH,4S-OH)]T[Pro(3S-OH,4S-Me)]; lactam 1-C)
MEC, Aspergillus flavus ATCC 28539 [1]: 0.031 µg/mL
MIC ([2]; ATCC15126, 24 h): 0.125 µg/mL (≈ 0.11 µM)
MIC ([3]; ATCC750, 24 h): 0.016 µg/mL (≈ 0.014 µM)
MIC [4]: 0.063 µg/mL (≈ 0.0553 µM)
MIC ([5]; ATCC90029, 24 h): 0.016 µg/mL (≈ 0.014 µM)
MIC [6]: 0.5 µg/mL (≈ 0.438 µM)
MIC ([7]; ATCC6260, 24 h): 1 µg/mL (≈ 0.877 µM)
